The test system of series [1] is bovine airway smooth muscle cells. The series is classed as cell-based. The procedure: (§1) Cell counts and cytotoxicity are assessed by tetrazolium salt reduction (MTT) […] assay in parallel experiments. Millipore filtered MTT (5 mg/ml, Sigma Chemical Co., St Louis, Mo.) dissolved in phosphate buffered saline (PBS, pH 7.2) is added to the microtiter wells (10 μl/well, 20 μl/16 mm well) at the end of the experimental period. After incubating at 37° C. for 4 h, media is removed from the microtiter wells and acidified with 0.04 M HCl. 2-propane/isopropanol is added to the wells at 200 μl/well or 400 μl/16 mm well for human airway smooth muscle cells. The plates are left at room temperature for 30 min and optical density is obtained by an ELISA reader (EL340 Microplate, Bio-Tek instruments, Winooski, Vt.) at 570 nm wave length. The results obtained by MTT assay correlate well with the viable cell counts obtained by the Trypan blue method using hemocytometer (Sigma cell count instruction manual). Cytotoxicity also is measured by LDH assays (Sigma). Release of LDH greater than 5% is considered cytotoxic.
Antisense human airway smooth muscle cell mannose receptor morpholino DNA oligonucleotides (M-oligos, 25 mer, 5 μM) delivered by the scrape method inhibited b hexosaminidase-induced mitogenesis in bovine ASMC by 37% compared to no inhibition by sense M-oligos (data not shown). […]

The test system of series [2] is human airway smooth muscle cells. In words: Mitogenic effect of growth factors in human airway smooth muscle cells (MTT). The series is classed as cell-based. The settings on record: for mitogenic response after repeated passages: human ASMC of the same batch, p10. On the procedure:
as §1
[…] Cells were stimulated with Hex A (50 nM), PDGF (0.1 nM), EGF (100 nM), bFGF (5 nM), thrombin (Thr, 1 unit/ml), FBS (5% vol/vol), or vehicle (V; PBS for Hex; 0.1% BSA in 4 mM HCl for PDGF; 0.1% BSA for EGF and bFGF; unstimulated for Thr and FBS). Viable cell numbers were assessed by MTT assays after 42 h stimulation. […] Experiments were repeated three times.

In series [3] the test system is bovine airway smooth muscle cells. In words: Hex A-induced mitogenesis in bovine airway smooth muscle cells. The series is classed as cell-based. The conditions noted are these: bovine ASMC. The procedure: Measurement of ^3H-thymidine incorporation as an assessment of the rate of DNA synthesis is performed as described previously (Lew et al., 1994) with a modification. After the cells reach confluency and contact-inhibited in microtiter wells (16 mm wells for human airway smooth muscle cells), the medium is replaced with medium M199 (Cellgro, Mediatech, Washington D.C.) or SmBM (for huASMC) containing 0.1% vol/vol fetal bovine serum (FBS, Hyclone Lab. Inc., Logan, Utah) 48 h before exposure to test substances. ^3H-thymidine (0.5 μCi/well or 2.5 μC/16 mm well, sp act 10 Ci/mmol, Amersham Corp., Arlington Heights, Ill.) is added to the cells 18 h after the addition of test substances and cells are harvested 18 h later. Radioactivity is quantified in a liquid scintillation counter (2000 CA; Packard Instrument Co., Downers Grove, Ill.). Experiments are performed in quadruplicate and repeated 3 times.
Mannan, a polymer of mannose, is a specific mannose receptor blocker.

In series [4] the test system is OVA-sensitized wild type FVB/N mice.
Protocol: Enhanced pause (Penh) is measured using the software provided by the manufacturer.
Wild type FVB/N mice, ages 6-8 weeks, were immunized with ovalbumin (20 μg in Imject®-Alum, i.p.) on days 0, 14, 21 as described in Example 6. Non-immunized mice received i.p. injection of Alum only. Thirty minutes before each of the three ovalbumin challenges on days 28-30, the mice were pretreated via aerosol with 100 or 300 mg yeast mannan in 2 ml dH2O or 5 EU E. Coli endotoxin (Sigma Chemical Co., St Louis, Mo.) in 2 ml saline. Experiments were performed in quadruplicate and repeated four times.
Measurements of airway hyper-reactivity (AHR) and broncho alveolar lavage were performed on day 31.
Methacholine sensitivity and reactivity were measured by Penh parameter in spontaneously breathing animals on day 31 (FIG. 9).
For series [5], the system named is human airway smooth muscle cells. Put plainly: PDGF-induced mitogenesis in human airway smooth muscle cells (MTT). It counts as cell-based. The conditions noted are these: mannan 0.1-1 mg/ml 30 min before 0.1 nM PDGF, 42 h, human ASMC. On the procedure:
as §1
(§2) Human airway smooth muscle cells in 24-well plates were starved for 18h in medium containing 0.1% FBS. Mannan in concentrations ranging from 0.1-1 mg/ml (Sigma) was added to the cells 30 min prior to the addition of 50 nM Hex A, 0.1 nM PDGF or vehicle (PBS for Hex or 0.1% BSA in 4 mM HCl for PDGF). Viable cell numbers were assessed by MTT assays after 42h stimulation. […]

For series [6], the system named is TNFα secretion, Hex secretion in BAL fluids. In words: TNFα and Hex secretion in BAL fluids, OVA-sensitized murine model. It counts as in vivo, mouse. The settings on record: aerosolized mannan pretreatment, day 31. On the procedure: The activities of Hex are determined as previously described (Lew et al., 1991). Samples (50 μl) are incubated with 100 μl of pre-warmed buffered substrate (5 mM p-nitrophenyl-2-deoxy-β-D-glucosaminide in 0.1 M citrate/phoshate buffer, pH 4.5) in 96-well microtirter plates for 1 h at 37° C. After incubation, the reactions are stopped by the addition of 100 μl of 0.5 M boric acid/NaOH buffer, pH 10.6. p-nitrophenol released by the hydrolytic activity is quantified spectrophotometrically by using a Biotek ELISA reader at 405 nm wave length. The Beer-Lambert Law and molecular extinction coefficient for p-nitrophenol (E=18,700) are applied to obtain units of specific activity expressed as micromoles of substrate cleaved/h/10^6 cells. Purified Hex (Sigma) is tested in each assay as a positive internal control.
Immediately after measuring MCh responsiveness, animals are anesthetized with Ketamine/Xylazine at 50/50 mg/kg and lungs are lavaged once via tracheal tube with 1 ml phosphate buffered saline (PBS, 37° C.). The broncho alveolar lavage_fluid is analyzed for Hex activity and differential cell count. Hex activity in broncho alveolar lavage_fluids is 262±33 μmoles/hr in immunized mice versus 92±12 in non-immunized mice.
Experiments were performed in quadruplicate and repeated four times.
Histopathology and immunohistology were performed on lungs and airways.

Series [7] concerns human airway smooth muscle cells. Put plainly: Hex A-induced mitogenesis in human airway smooth muscle cells (MTT). The series is classed as cell-based. The settings on record: mannan 0.1-1 mg/ml 30 min before 50 nM Hex A, 42 h, human ASMC. On the procedure:
as §1, §2

For series [8], the system named is OVA-sensitized and -challenged mice. In words: Histopathology of trachea and lung, OVA-sensitized murine model. The series is classed as in vivo, mouse.
Series [9] deals with naive wild type FVB/N mice. In words: Airway hyperreactivity after aerosolized Hex in naive mice (methacholine challenge, Penh). It counts as in vivo, mouse. The conditions noted are these: aerosolized human Hex A 1 mg every other day for 2 weeks, day 15. On the procedure:
Six week old FVB/N mice were treated with aerosolized human Hex A (1 mg) or vehicle (PBS) every other day for 2 weeks. On day 15, lung physiology was non-invasively assessed by methacholine (Mch) challenge and changes in pulmonary resistance (pause enhancement, Penh).

Take Ethoxylated polyethylenimine [EPEI]: the “concentration beyond which the delivery system was cytotoxic” value in [1] is more than 3 μl/ml.
PDGF [reference compound]: the “mitogenic response after repeated passages” value (“mitogenic response” for short) in series [2] is “responded poorly”.
Regarding mannan, the “inhibition of Hex A-induced mitogenesis” value in [3] and in series [7] was “inhibited by mannan in a concentration dependent manner” each time. Also, in [4] (aerosol 30 min before each OVA challenge on days 28-30 (mannan 100 or 300 mg, endotoxin 5 EU), measured on day 31), the “effect on OVA-induced airway hyper-reactivity (Penh)” value was “Blocks Airway Hyper-Reactivity”. In series [4] (after the last dose of aerosolized yeast mannan), the “duration of the inhibitory effect” value is reported as “at least four”. Further, in series [4] (mouse, in vivo), the “general condition of the treated mice” value is “remained healthy and active”. The “inhibitory effect on PDGF-induced mitogenesis” value in series [5] is “lack of inhibitory effect”. Moreover, the “induction of Hex secretion in BAL fluids” value in series [6] was “did not induce”. In addition, in series [6], the “inhibition of TNFα secretion in BAL fluids” value is 85-100%. For the same molecule, the “trachea histology (H&E): trachealis muscle and epithelial layer” value in [8] (aerosolized mannan 300 mg) was “Trachealis muscle has normal appearance and the epithelial layer is intact”. Moreover, the “peribronchiolar cellular infiltration (H&E, lung)” value in [8] (mannan 300 mg pretreated mouse) was “marked decrease in peribronchiolar cellular infiltration in 3 out of 4 bronchioles”.
For the molecule thrombin [reference compound], the “mitogenic response” value in series [2] is “responded poorly”.

B1: Hex A: human placental b hexosaminidase A (Sigma), lysosomal hydrolase, mannosyl-rich ligand of ASM-MR (protein)
chain 1: TLEKNVLVVSVVTPGCNQLPTLESVENYTLTINDDQCLLLSETVWGALRGLETFSQLVWKSAEGTFFINKTEIEDFPRFPHRGLLLDTSRHYLPLSSILDTLDVMAYNKLNVFHWHLVDDPSFPYESFTFPELMRKGSYNPVTHIYTAQDVKEVIEYARLRGIRVLAEFDTPGHTLSWGPGIPGLLTPCYSGSEPSGTFGPVNPSLNNTYEFMSTFFLEVSSVFPDFYLHLGGDEVDFTCWKSNPEIQDFMRKKGFGEDFKQLESFYIQTLLDIVSSYGKGYVVWQEVFDNKVKIQPDTIIQVWREDIPVNYMKELELVTKAGFRALLSAPWYLNRISYGPDWKDFYIVEPLAFEGTPEQKALVIGGEACMWGEYVDNTNLVPRLWPRAGAVAERLWSNKLTSDLTFAYERLSHFRCELLRRGVQAQPLNVGFCEQEFEQT
chain 2: TQVQQLLVSITLQSECDAFPNISSDESYTLLVKEPVAVLKANRVWGALRGLETFSQLVYQDSYGTFTINESTIIDSPRFSHRGILIDTSRHYLPVKIILKTLDAMAFNKFNVLHWHIVDDQSFPYQSITFPELSNKGSYSLSHVYTPNDVRMVIEYARLRGIRVLPEFDTPGHTLSWGKGQKDLLTPCYSRQNKLDSFGPINPTLNTTYSFLTTFFKEISEVFPDQFIHLGGDEVEFKCWESNPKIQDFMRQKGFGTDFKKLESFYIQKVLDIIATINKGSIVWQEVFDDKAKLAPGTIVEVWKDSAYPEELSRVTASGFPVILSAPWYLDLISYGQDWRKYYKVEPLDFGGTQKQKQLFIGGEACLWGEYVDATNLTPRLWPRASAVGERLWSSKDVRDMDDAYDRLTRHRCRMVERGIAAQPLYAGYCNHENM
In the case of B1, in series [9], the “airway hyperreactivity (Penh, methacholine challenge)” value was “increased airway hyperreactivity”. For the same molecule, the “mitogenic effect (viable cell numbers, MTT)” value in [2] (Hex A 50 nM, 42 h stimulation, serum-starved cells, passage #5) is “comparable to that of PDGF and fetal bovine serum”. Also, the “mitogenic response” value in series [2] is given as “responded poorly”.

Source of the values: patent US7582620B2, “Use of mannan from saccharomyces cerevisiae for the treatment of asthma” (The University of Tennessee Foundation, priority 2003, dated 2009).
